From patent US10786583B2, “Pre-saturation of the liver and subsequent administration of the contrast agent” (B. Braun Melsungen AG, priority 2013, dated 2020) come the findings set out here.

Series [1] can be described thus: Density measurement of mixtures of MCT and F6H8. As to conditions: mixture with about 61.5 wt.-% MCT, based on total weight of the oil phase. In kind it is physicochemical. The text has this:
By adapting the density of the oil phase to the density of the aqueous phase coalescence phenomena of the droplets as well as sedimentation phenomena, which destabilize the emulsion, can be decreased.

Series [2] in a line: Solubility of perfluorocarbon contrast agents in oil phase. In kind it is physicochemical. The source says:
Perfluoroctylbromide (PFOB) is a known contrast agent for the magnetic resonance spectroscopy.

Regarding `CCCCCCCCC(F)(F)C(F)(F)C(F)(F)C(F)(F)C(F)(F)C(F)(F)F` [Example F6H8, perfluorohexyloctane], the “Content of F6H8 in oil phase at which density of the oil mixture corresponds to the density of the aqueous phase” value in series [1] is “about 38.5 wt.-%”.
Turning to `FC(F)(F)C(F)(F)C(F)(F)C(F)(F)C(F)(F)C(F)(F)C(F)(F)C(F)(F)C(F)(F)C(F)(F)Br` [PFDB, perfluorodecylbromide], the “Solubility in PFOB” value in series [2] was “can be dissolved in PFOB”.
As for `FC(F)(F)C(F)(F)C(F)(F)C(F)(F)C(F)(F)C(F)(F)C(F)(F)C(F)(F)Br` [PFOB, Perfluoroctylbromide, reference compound], in series [2], the “Solubility in MCT” value was “cannot be dissolved in MCT”.
